Data set [1] can be described thus: Saturated solubility of terbinafine HCl in various solvents. The conditions noted are these: thermodynamic from solid, n = 3. The data set is classed as physicochemical. The method, then: In order to establish a suitable receiver fluid for use in permeation studies, the saturated solubility of terbinafine HCl at room temperature was determined in various solvents such as, water, phosphate buffered saline (PBS), PBS with 5% Tween-80 (PBS-T), citrate buffer and sodium phosphate buffer. The drug was added to each of the solvents until visual saturation was obtained and the mixtures were left at controlled temperature (19° C.) for 24 hours. The saturated drug solution was filtered and solubility of the drug was determined by UV spectrophotometer.

A short description of data set [2]: Effect of Tween-20 and Tween-80 on terbinafine HCl solubility in water and PBS. It counts as physicochemical. The conditions noted are these: thermodynamic from solid, n = 3. As to the method: The influence of Tween-20 and Tween-80 on terbinafine HCl solubility in water and PBS was determined. The drug was added to each of the solvents until visual saturation was obtained, then left at controlled temperature (19° C.) or 24 hours. The saturated solutions were filtered and drug solubility in the filtrate was determined by UV spectrophotometer.

The nature of data set [3]: Permeation through hoof membrane in Franz diffusion cell, passive versus iontophoretic. The data set is classed as in vitro ADME, bovine. As to the method:
The permeation experiments were conducted to optimize the parameters for iontophoretically-assisted terbinafine HCl into the hoof membrane. In these experiments bovine hoof membranes (˜0.250 mm thickness) were used as a model for human nail plates. The prehydrated (in water for 60 min) hoof membrane was sandwiched between the donor and receptor compartments of Franz diffusion cell (FDC). The receptor compartment was filled with receiver fluid (5 ml of PBS-5% Tween 80 (T80), water or water-T80 as indicated) and the set up was visually examined for any leaks by inverting the FDC. Two ml of drug solutions (5-10 mg/ml) or suspensions (5-10 mg/ml) were placed in the donor compartment of the Franz diffusion cell. […] Aliquots (50 μl) of the receptor phase were taken every 15 minutes for the first two hours and every hour subsequently for 8 h. A last aliquot was taken at 24 h. Some experiments were conducted for longer in which case aliquots were taken daily. […] Control passive experiments were conducted in the same way except for the application of electric current. Data were expressed as means ±standard deviations. All experiments were performed in triplicate. Drug permeation was measured as described above for up to 24 hours (n=3). For iontophoretic permeation, current density of 1 mA cm^2 was applied for 1 hr using carbon electrodes. […]

Data set [4] is described as follows: Approximate visual solubility in receiver fluids. Conditions: aqueous with cosolvent or surfactant or cyclodextrin, Approximate visual solubility. The data set is classed as physicochemical. As to the method: The visual solubility of each receiver fluid shown in Table 3 below was initially tested for ketoconazole (BUFA B.V.) and ciclopirox (PCAS Finland Oy). Additional solubility testing was then conducted for terbinafine hydrochloride (QueMaCo Ltd.), amorolfine hydrochloride (Inter-Chemical Ltd.) and itraconazole EP (Shamrock, UK) and the results are shown in Table 3.
The solubility of terbinafine hydrochloride, fluconazole, itraconazole and amorolfine hydrochloride was determined in PBS and 5% Tween 80 and the results are summarized in Table 4.

The solubility is the concentration that dissolves in the medium under given conditions.

Structures can show the parent of a compound that is named as a salt. Bounds are passed on as bounds.

Take `CN(C/C=C/C#CC(C)(C)C)Cc1cccc2ccccc12` [terbinafine HCl, (E)-N-(6,6-dimethyl-2-hepten-4-ynyl)-N-methyl-1-naphthylmethamine hydrochloride]: the solubility at 24 h in data set [1] (aqueous buffer, Citrate buffer, pH 5, 19° C.) amounted to 1810 µg/mL; in data set [1] (aqueous buffer, PBS, pH 7.4, 19° C.), 1320 µg/mL; in data set [1] (aqueous with cosolvent or surfactant or cyclodextrin, PBS-T (PBS with 5% Tween-80), pH 6.8, 19° C.), 6020 µg/mL; in data set [1] (Distilled water, pH 5.8, 19° C.), 6370 µg/mL; in data set [2] (aqueous buffer, PBS, 19° C.), 1320 µg/mL; in data set [2] (aqueous with cosolvent or surfactant or cyclodextrin, PBS and 5% Tween-20, 19° C.), 5220 ± 20 µg/mL. For the same molecule, the solubility at 24 h stood at 6530 ± 60 µg/mL in data set [2] (aqueous with cosolvent or surfactant or cyclodextrin, PBS and 5% Tween-80, 19° C.); 10600 ± 660 µg/mL in data set [2] (aqueous with cosolvent or surfactant or cyclodextrin, Water and 5% Tween-20, 19° C.); 11500 ± 640 µg/mL in data set [2] (aqueous with cosolvent or surfactant or cyclodextrin, Water and 5% Tween-80, 19° C.); 6370 ± 310 µg/mL in data set [2] (Distilled water, 19° C.). Moreover, the “time at which iontophoretic drug permeation leveled off” value in data set [3] (bovine, 10 mg/ml) is given as “about 8 hrs”. The “drug concentration in the receptor phase” value in data set [3] (passive delivery, at 24 h, water-T80 and 10 mg/ml drug solution, average of replicates) came out at 20 ng/mL. For the same molecule, the solubility in data set [4] is greater than 5000 µg/mL.

Values taken from patent publication US20080261986A1, “PHARMACEUTICAL FORMULATIONS FOR IONTOPHORETIC DELIVERY OF AN ANTI-FUNGAL DRUG” (priority 2007, published 2008).
